Test results from paper PMC12749166, “Fragment-based drug design of a bacterial kinase inhibitor capable of increasing the antibiotic sensitivity of clinical isolates” (Communications Chemistry, 2025).

Test system: P. aeruginosa C0307
Assay: Checkerboard assay of 83 with kanamycin A
Format: cell-based
Details: for checkerboard well reading (growth): Supp. Figure 3 B

Clc1cnc2[nH]ccc2c1-c1ccn[nH]1 [Compound 83]
checkerboard well reading (growth) (83 1 µg.mL-1, kanamycin A 64 µg.mL-1): 0.113
checkerboard well reading (growth) (83 1 µg.mL-1, kanamycin A 128 µg.mL-1): 0.042
checkerboard well reading (growth) (83 2 µg.mL-1, kanamycin A 0 µg.mL-1): 1.144
checkerboard well reading (growth) (83 2 µg.mL-1, kanamycin A 2 µg.mL-1): 1.163
checkerboard well reading (growth) (83 2 µg.mL-1, kanamycin A 4 µg.mL-1): 1.143
checkerboard well reading (growth) (83 2 µg.mL-1, kanamycin A 8 µg.mL-1): 1.140
checkerboard well reading (growth) (83 2 µg.mL-1, kanamycin A 16 µg.mL-1): 1.101
checkerboard well reading (growth) (83 2 µg.mL-1, kanamycin A 32 µg.mL-1): 1.112
checkerboard well reading (growth) (83 2 µg.mL-1, kanamycin A 64 µg.mL-1): 0.172
checkerboard well reading (growth) (83 2 µg.mL-1, kanamycin A 128 µg.mL-1): 0.038
checkerboard well reading (growth) (83 4 µg.mL-1, kanamycin A 0 µg.mL-1): 1.132
checkerboard well reading (growth) (83 4 µg.mL-1, kanamycin A 2 µg.mL-1): 1.139
checkerboard well reading (growth) (83 4 µg.mL-1, kanamycin A 4 µg.mL-1): 1.161
checkerboard well reading (growth) (83 4 µg.mL-1, kanamycin A 8 µg.mL-1): 1.123
checkerboard well reading (growth) (83 4 µg.mL-1, kanamycin A 16 µg.mL-1): 1.163
checkerboard well reading (growth) (83 4 µg.mL-1, kanamycin A 32 µg.mL-1): 1.149
checkerboard well reading (growth) (83 4 µg.mL-1, kanamycin A 64 µg.mL-1): 0.250
checkerboard well reading (growth) (83 4 µg.mL-1, kanamycin A 128 µg.mL-1): 0.041
checkerboard well reading (growth) (83 8 µg.mL-1, kanamycin A 0 µg.mL-1): 1.480
checkerboard well reading (growth) (83 8 µg.mL-1, kanamycin A 2 µg.mL-1): 1.120
checkerboard well reading (growth) (83 8 µg.mL-1, kanamycin A 4 µg.mL-1): 1.107
checkerboard well reading (growth) (83 8 µg.mL-1, kanamycin A 8 µg.mL-1): 1.138
checkerboard well reading (growth) (83 8 µg.mL-1, kanamycin A 16 µg.mL-1): 1.202
checkerboard well reading (growth) (83 8 µg.mL-1, kanamycin A 32 µg.mL-1): 1.141
checkerboard well reading (growth) (83 8 µg.mL-1, kanamycin A 64 µg.mL-1): 0.170
checkerboard well reading (growth) (83 8 µg.mL-1, kanamycin A 128 µg.mL-1): 0.040
checkerboard well reading (growth) (83 16 µg.mL-1, kanamycin A 0 µg.mL-1): 1.350
checkerboard well reading (growth) (83 16 µg.mL-1, kanamycin A 2 µg.mL-1): 1.145
checkerboard well reading (growth) (83 16 µg.mL-1, kanamycin A 4 µg.mL-1): 1.177
checkerboard well reading (growth) (83 16 µg.mL-1, kanamycin A 8 µg.mL-1): 1.181
checkerboard well reading (growth) (83 16 µg.mL-1, kanamycin A 16 µg.mL-1): 1.121
checkerboard well reading (growth) (83 16 µg.mL-1, kanamycin A 32 µg.mL-1): 1.161
checkerboard well reading (growth) (83 16 µg.mL-1, kanamycin A 64 µg.mL-1): 0.077
checkerboard well reading (growth) (83 16 µg.mL-1, kanamycin A 128 µg.mL-1): 0.041
checkerboard well reading (growth) (83 32 µg.mL-1, kanamycin A 0 µg.mL-1): 1.542
checkerboard well reading (growth) (83 32 µg.mL-1, kanamycin A 2 µg.mL-1): 1.314
checkerboard well reading (growth) (83 32 µg.mL-1, kanamycin A 4 µg.mL-1): 1.373
checkerboard well reading (growth) (83 32 µg.mL-1, kanamycin A 8 µg.mL-1): 1.519
checkerboard well reading (growth) (83 32 µg.mL-1, kanamycin A 16 µg.mL-1): 1.301
checkerboard well reading (growth) (83 32 µg.mL-1, kanamycin A 32 µg.mL-1): 1.153
checkerboard well reading (growth) (83 32 µg.mL-1, kanamycin A 64 µg.mL-1): 0.041
checkerboard well reading (growth) (83 32 µg.mL-1, kanamycin A 128 µg.mL-1): 0.042
checkerboard well reading (growth) (83 64 µg.mL-1, kanamycin A 0 µg.mL-1): 1.274
checkerboard well reading (growth) (83 64 µg.mL-1, kanamycin A 2 µg.mL-1): 1.335
checkerboard well reading (growth) (83 64 µg.mL-1, kanamycin A 4 µg.mL-1): 1.176
checkerboard well reading (growth) (83 64 µg.mL-1, kanamycin A 8 µg.mL-1): 1.404
checkerboard well reading (growth) (83 64 µg.mL-1, kanamycin A 16 µg.mL-1): 1.087
checkerboard well reading (growth) (83 64 µg.mL-1, kanamycin A 32 µg.mL-1): 0.939
checkerboard well reading (growth) (83 64 µg.mL-1, kanamycin A 64 µg.mL-1): 0.044
checkerboard well reading (growth) (83 64 µg.mL-1, kanamycin A 128 µg.mL-1): 0.044
checkerboard well reading (growth) (83 128 µg.mL-1, kanamycin A 0 µg.mL-1): 1.377
checkerboard well reading (growth) (83 128 µg.mL-1, kanamycin A 2 µg.mL-1): 1.277
checkerboard well reading (growth) (83 128 µg.mL-1, kanamycin A 4 µg.mL-1): 1.324
checkerboard well reading (growth) (83 128 µg.mL-1, kanamycin A 8 µg.mL-1): 1.318
checkerboard well reading (growth) (83 128 µg.mL-1, kanamycin A 16 µg.mL-1): 0.963
checkerboard well reading (growth) (83 128 µg.mL-1, kanamycin A 32 µg.mL-1): 0.366
checkerboard well reading (growth) (83 128 µg.mL-1, kanamycin A 64 µg.mL-1): 0.038
checkerboard well reading (growth) (83 128 µg.mL-1, kanamycin A 128 µg.mL-1): 0.043
Impact of 83 alone on bacterial growth (absence of antibiotics, 83 from 0 to 128 µg mL^−1 (585 µM)): no impact on bacterial growth
